Consider 25 molecules from patent US10689377B2 (Mirati Therapeutics, Inc., priority 2017, dated 2020).

Sequence of KRas G12C (P01116 1-188 isoform P01116-2 G12C): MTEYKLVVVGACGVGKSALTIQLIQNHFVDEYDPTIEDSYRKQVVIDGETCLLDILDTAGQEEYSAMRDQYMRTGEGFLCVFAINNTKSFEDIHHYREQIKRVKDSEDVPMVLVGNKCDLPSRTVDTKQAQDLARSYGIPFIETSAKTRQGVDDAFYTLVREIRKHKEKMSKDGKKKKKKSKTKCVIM

This assay has as its target KRas G12C (Homo sapiens, UniProt P01116, G12C). Kind of assay: Cellular inhibition of KRas G12C measured by Phospho-ERK in NCI-H358 cells. It is filed as cell-based. The settings on record: pERK(Thr202/Tyr204) normalized with GAPDH, NCI-H358 cells, 3 hours; read-out: IC50. In outline: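 Readout is pERK(Thr202/Tyr204) immunofluorescence normalized to GAPDH, expressed as percent of DMSO control and fitted with a 4-parameter curve for IC50. Attached NCI-H358 cells received compound for 3 hours in 0.5% DMSO, followed by fixation and methanol permeabilization.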
Take `C=CC(=O)N1CCN(c2nc(OCC(O)CO)nc3c2CCN(c2cc(O)cc4ccccc24)C3)CC1` (stereo not shown) [Example 143, 1-[4-[2-(2,3-dihydroxypropoxy)-7-(3-hydroxy-1-naphthyl)-6,8-dihydro-5H-pyrido[3,4-d]pyrimidin-4-yl]piperazin-1-yl]prop-2-en-1-one]: the IC50 is over 1 µM.
Under `C=CC(=O)N1CCN(c2nc(OC[C@H]3CCCN3CCO)nc3c2CCN(c2cccc4ccccc24)C3)C[C@@H]1CC#N` [Example 329, 2-[(2S)-4-[2-[[(2R)-1-(2-hydroxyethyl)pyrrolidin-2-yl]methoxy]-7-(1-naphthyl)-6,8-dihydro-5H-pyrido[3,4-d]pyrimidin-4-yl]-1-prop-2-enoyl-piperazin-2-yl]acetonitrile] stands 0.0001 to 1 µM; under `C=C(F)C(=O)N1CCN(c2nc(OC[C@@H]3CCCN3C)nc3c2CCN(c2cccc4ccccc24)C3)C[C@@H]1CC#N` [Example 602, 2-[(2S)-1-(2-fluoroprop-2-enoyl)-4-[2-[[(2S)-1-methylpyrrolidin-2-yl]methoxy]-7-(1-naphthyl)-6,8-dihydro-5H-pyrido[3,4-d]pyrimidin-4-yl]piperazin-2-yl]acetonitrile], 0.0001 to 1 µM; under `C=CC(=O)N1CCN(c2nc(N3CCC(N(C)C)CC3)nc3c2CCN(c2cc(O)cc4ccccc24)C3)CC1` [Example 17, 1-(4-(2-(4-(dimethylamino)piperidin-1-yl)-7-(3-hydroxynaphthalen-1-yl)-5,6,7,8-tetrahydropyrido[3,4-d]pyrimidin-4-yl)piperazin-1-yl)prop-2-en-1-one], over 1 µM.
Under `C=CC(=O)N1CCN(c2nc(OCCCN3C[C@@H]4C[C@H]3CO4)nc3c2CCN(c2cc(O)cc4ccccc24)C3)CC1CC#N` (stereo partly drawn) [Example 153, 2-[4-[7-(3-hydroxy-1-naphthyl)-2-[3-[(1S,4S)-2-oxa-5-azabicyclo[2.2.1]heptan-5-yl]propoxy]-6,8-dihydro-5H-pyrido[3,4-d]pyrimidin-4-yl]-1-prop-2-enoyl-piperazin-2-yl]acetonitrile] stands 0.0001 to 1 µM.
In the case of `C=CC(=O)N1CCN(c2nc(OC(CO)CN3CCOCC3)nc3c2CCN(c2cc(O)cc4ccccc24)C3)CC1` (stereo not shown) [Example 217, 1-(4-(2-((1-hydroxy-3-morpholinopropan-2-yl)oxy)-7-(3-hydroxynaphthalen-1-yl)-5,6,7,8-tetrahydropyrido[3,4-d]pyrimidin-4-yl)piperazin-1-yl)prop-2-en-1-one], the IC50 was over 1 µM.
Consider `C=CC(=O)N1CCN(c2nc(O[C@H](CC)CN(C)C)nc3c2CCN(c2cc(O)cc4ccccc24)C3)CC1` [Example 60, (R)-1-(4-(2-((1-(dimethylamino)butan-2-yl)oxy)-7-(3-hydroxynaphthalen-1-yl)-5,6,7,8-tetrahydropyrido[3,4-d]pyrimidin-4-yl)piperazin-1-yl)prop-2-en-1-one], for which the IC50 is over 1 µM.
Under `C=CC(=O)N1CCN(c2nc(N3CCCC(N(C)C)C3)nc3c2CCN(c2cccc4ccccc24)C3)C[C@@H]1CC#N` (stereo partly drawn) [Example 405, 2-((2S)-1-acryloyl-4-(2-(3-(dimethylamino)piperidin-1-yl)-7-(naphthalen-1-yl)-5,6,7,8-tetrahydropyrido[3,4-d]pyrimidin-4-yl)piperazin-2-yl)acetonitrile] stands 0.0001 to 1 µM; under `C=CC(=O)N1CCN(c2nc(OC[C@@H]3CCCN3C)nc3c2CCN(c2ccccc2OC(F)(F)F)C3)CC1CC#N` (stereo partly drawn) [Example 211, 2-(1-acryloyl-4-(2-(((S)-1-methylpyrrolidin-2-yl)methoxy)-7-(2-(trifluoromethoxy)phenyl)-5,6,7,8-tetrahydropyrido[3,4-d]pyrimidin-4-yl)piperazin-2-yl)acetonitrile], 0.0001 to 1 µM.
As for `C=CC(=O)N1CCN(c2ncnc3c2CCN(c2cc(O)ccc2F)C3)CC1` [Example 5, 1-(4-(7-(2-fluoro-5-hydroxyphenyl)-5,6,7,8-tetrahydropyrido[3,4-d]pyrimidin-4-yl)piperazin-1-yl)prop-2-en-1-one], the 50% inhibitory concentration (IC50) was over 1 µM.
Under `C=CC(=O)N1CCN(c2nc(OC[C@@H]3COCCN3C)nc3c2CCN(c2cccc4ccccc24)C3)CC1CC#N` (stereo partly drawn) [Example 445, 2-(1-Acryloyl-4-(2-(((S)-4-methylmorpholin-3-yl)methoxy)-7-(naphthalen-1-yl)-5,6,7,8-tetrahydropyrido[3,4-d]pyrimidin-4-yl)piperazin-2-yl)acetonitrile] stands 0.0001 to 1 µM.
Under `C=CC(=O)N1CCN(c2nc(OC[C@@H]3CCCN3C)nc3c2CCN(c2c(C)ccc(F)c2C)C3)C[C@@H]1CC#N` [Example 349, 2-((S)-1-acryloyl-4-(7-(3-fluoro-2,6-dimethylphenyl)-2-(((S)-1-methylpyrrolidin-2-yl)methoxy)-5,6,7,8-tetrahydropyrido[3,4-d]pyrimidin-4-yl)piperazin-2-yl)acetonitrile] stands 0.0001 to 1 µM; under `C=CC(=O)N1CCN(c2nc(OCCCN3CCC(OC)C3)nc3c2CCN(c2cc(O)cc4ccccc24)C3)CC1` (stereo not shown) [Example 137, 1-[4-[7-(3-hydroxy-1-naphthyl)-2-[3-(3-methoxypyrrolidin-1-yl)propoxy]-6,8-dihydro-5H-pyrido[3,4-d]pyrimidin-4-yl]piperazin-1-yl]prop-2-en-1-one], over 1 µM.
`C=CC(=O)N1CCN(c2nc(OC[C@@H]3CCCN3C)nc3c2CCN(c2cccc(OC)c2F)C3)CC1CC#N` (stereo partly drawn) [Example 307, 2-[4-[7-(2-fluoro-3-methoxy-phenyl)-2-[[(2S)-1-methylpyrrolidin-2-yl]methoxy]-6,8-dihydro-5H-pyrido[3,4-d]pyrimidin-4-yl]-1-prop-2-enoyl-piperazin-2-yl]acetonitrile]: the IC50 was over 1 µM.
The figure for `C=CC(=O)N1CCN(c2nc(OC[C@@H]3CCCN3C)nc3c2CCN(c2cccc4cnccc24)C3)CC1CC#N` (stereo partly drawn) [Example 292, 2-[4-[7-(5-isoquinolyl)-2-[[(2S)-1-methylpyrrolidin-2-yl]methoxy]-6,8-dihydro-5H-pyrido[3,4-d]pyrimidin-4-yl]-1-prop-2-enoyl-piperazin-2-yl]acetonitrile] is over 1 µM; for `C=CC(=O)N1CCN(c2nc(O[C@H](C)CN3CCCC3)nc3c2CCN(c2cc(O)cc4ccccc24)C3)CC1` [Example 120, (R)-1-(4-(7-(3-hydroxynaphthalen-1-yl)-2-((1-(pyrrolidin-1-yl)propan-2-yl)oxy)-5,6,7,8-tetrahydropyrido[3,4-d]pyrimidin-4-yl)piperazin-1-yl)prop-2-en-1-one] it is 0.0001 to 1 µM; for `C=CC(=O)N1CCN(c2nc(OCCN(C)C)nc3c2CCN(c2cc(O)cc4ccccc24)C3)CC1` [Example 9, 1-(4-(2-(2-(dimethylamino)ethoxy)-7-(3-hydroxynaphthalen-1-yl)-5,6,7,8-tetrahydropyrido[3,4-d]pyrimidin-4-yl)piperazin-1-yl)prop-2-en-1-one] it is over 1 µM.
Under `C=CC(=O)N1CCN(c2nc(OCCN(C)C)nc3c2CCN(c2cc(O)cc4ccccc24)C3)C[C@@H]1C` [Example 14] stands over 1 µM; under `C=CC(=O)N1CCN(c2nc(O[C@H](C)CN(C)C)nc3c2CCN(c2cc(O)cc4ccccc24)C3)CC1CC#N` (stereo partly drawn) [Example 150, 2-(1-acryloyl-4-(2-(((R)-1-(dimethylamino)propan-2-yl)oxy)-7-(3-hydroxynaphthalen-1-yl)-5,6,7,8-tetrahydropyrido[3,4-d]pyrimidin-4-yl)piperazin-2-yl)acetonitrile], 0.0001 to 1 µM.
Consider `CN1CCC[C@H]1COc1nc2c(c(N3CCN(C(=O)/C=C/CN4CCOCC4)[C@@H](CC#N)C3)n1)CCN(c1cccc(Cl)c1C(F)(F)F)C2` [Example 346, 2-[(2S)-4-[7-[3-chloro-2-(trifluoromethyl)phenyl]-2-[[(2S)-1-methylpyrrolidin-2-yl]methoxy]-6,8-dihydro-5H-pyrido[3,4-d]pyrimidin-4-yl]-1-[(E)-4-morpholinobut-2-enoyl]piperazin-2-yl]acetonitrile], for which the IC50 fell in the range of 0.0001 to 1 µM.
`C=CC(=O)N1CCN(c2nc(OC[C@@H]3C[C@@H](F)CN3C)nc3c2CCN(c2cc(OC)cc4ccccc24)C3)CC1` [Example 355, 1-[4-[2-[[(2S,4R)-4-fluoro-1-methyl-pyrrolidin-2-yl]methoxy]-7-(3-methoxy-1-naphthyl)-6,8-dihydro-5H-pyrido[3,4-d]pyrimidin-4-yl]piperazin-1-yl]prop-2-en-1-one]: the IC50 was over 1 µM.
The figure for `C=CC(=O)N1CCN(c2nc(OCCCN3CCOCC3)nc3c2CCN(c2cc(O)cc4cc(C)ccc24)C3)CC1` [Example 43, 1-(4-(7-(3-hydroxy-6-methylnaphthalen-1-yl)-2-(3-morpholinopropoxy)-5,6,7,8-tetrahydropyrido[3,4-d]pyrimidin-4-yl)piperazin-1-yl)prop-2-en-1-one] is over 1 µM; for `C=CC(=O)N1CCN(c2nc(OC[C@H]3CN(C)CCN3)nc3c2CCN(c2cccc4ccccc24)C3)CC1CC#N` (stereo partly drawn) [Example 224, 2-(1-acryloyl-4-(2-(((R)-4-methylpiperazin-2-yl)methoxy)-7-(naphthalen-1-yl)-5,6,7,8-tetrahydropyrido[3,4-d]pyrimidin-4-yl)piperazin-2-yl)acetonitrile] it is 0.0001 to 1 µM.
The figure for `C=C(F)C(=O)N1CCN(c2nc(OC[C@@H]3CC(C)(C)CN3C)nc3c2CCN(c2cccc4cccc(C)c24)C3)C[C@@H]1CC#N` [Example 615, 2-[(2S)-1-(2-fluoroprop-2-enoyl)-4-[7-(8-methyl-1-naphthyl)-2-[[(2S)-1,4,4-trimethylpyrrolidin-2-yl]methoxy]-6,8-dihydro-5H-pyrido[3,4-d]pyrimidin-4-yl]piperazin-2-yl]acetonitrile] is 0.0001 to 1 µM.
Under `C=CC(=O)N1CCN(c2nc(OCCN3CCC(F)(F)C3)nc3c2CCN(c2cc(O)cc4ccccc24)C3)CC1` [Example 139, 1-[4-[2-[2-(3,3-difluoropyrrolidin-1-yl)ethoxy]-7-(3-hydroxy-1-naphthyl)-6,8-dihydro-5H-pyrido[3,4-d]pyrimidin-4-yl]piperazin-1-yl]prop-2-en-1-one] stands over 1 µM.
